In data set [1] the target is T1, SR-BI (Mus musculus, UniProt Q61009).
T1 sequence (Q61009 1-509): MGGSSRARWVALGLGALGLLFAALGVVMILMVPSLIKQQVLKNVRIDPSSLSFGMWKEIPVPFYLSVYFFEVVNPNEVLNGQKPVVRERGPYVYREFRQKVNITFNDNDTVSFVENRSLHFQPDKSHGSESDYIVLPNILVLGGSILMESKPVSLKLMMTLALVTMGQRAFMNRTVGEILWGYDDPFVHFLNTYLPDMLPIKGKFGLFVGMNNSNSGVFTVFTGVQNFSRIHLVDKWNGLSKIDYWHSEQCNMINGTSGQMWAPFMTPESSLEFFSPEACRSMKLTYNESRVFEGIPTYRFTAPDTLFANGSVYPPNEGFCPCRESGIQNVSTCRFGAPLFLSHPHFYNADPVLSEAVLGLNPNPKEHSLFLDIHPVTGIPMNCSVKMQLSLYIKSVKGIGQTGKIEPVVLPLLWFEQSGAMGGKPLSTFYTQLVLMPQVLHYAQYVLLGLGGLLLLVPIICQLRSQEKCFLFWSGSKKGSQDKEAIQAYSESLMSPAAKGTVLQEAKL
The data set is described as follows: Cholesterol efflux assay. Format: cell-based. The arrangement: expressed in transfected cells. The method, then:
SR-BI also mediates bidirectional flux (e.g. efflux) of unesterified or ‘free’ cholesterol (FC) between cells and HDL or other acceptors. In vivo, the greatest SR-BI-mediated selective uptake occurs in the liver and steroidogenic organs. This assay is used to determine if the compounds alter the efflux of FC to HDL.
On Day 0, 50,000 cells per well were plated in 24-well plates. On the following day, the media was removed and [^3H]cholesterol in lipoprotein-deficient media was added. On Day 1, the medium was replaced with Ham's F12 medium supplemented with 10% bovine lipoprotein deficient serum with 1 μCi/ml [1,2-^3H]cholesterol (40-60 Ci/mmol). On Day 3, the cells were washed to remove serum and incubated in Ham's F12 plus 1% fatty acid-free BSA. On Day 4, the cells were washed and pretreated with compounds for 1 hour. Subsequently, the cells were incubated for an additional 2 hours with the same concentrations of small molecules and with unlabeled HDL (final HDL concentration of 100 μg protein/ml). The medium was collected to determine released cholesterol, and the cells were lysed. The amount of [^3H]cholesterol in the medium and cells was determined using liquid scintillation counting. Total cellular [^3H]cholesterol was calculated as the sum of the radioactivity in the efflux medium plus the radioactivity in the cells and was used to calculate the [^3H]cholesterol efflux (percent of total [^3H]cholesterol released into the medium).

In data set [2] the target is T1, SR-BI. Kind of data set: 125I-HDL binding assay. Further details: expressed in transfected cells. The method, then: In a binding assay, ^125I-HDL binding to cells (4° C. or 37° C.) was measured for 2 h in the absence (total activity) or presence (nonspecific activity) of a 40-fold excess of unlabeled HDL. Stably transfected cells were seeded in the wells of 24-well plates (50,000 cells per well) in Ham's F12 medium containing 2 mM L-glutamine, 50 units/mL penicillin per 50 μg/mL streptomycin (medium A) supplemented with 5% (vol/vol) FBS and 0.25 mg/mL G418 (medium B) on day 0, and binding assays were performed on day 2. The cells were washed twice with prewarmed (37° C.) medium A plus 0.5% (wt/vol) BSA (medium C) prior to adding ^125I-HDL. For binding assays performed at 4° C., the assay plates were removed from the incubator, precooled for 30 min on ice in a cold room (4° C.), and then washed twice with cold (4° C.) medium C supplemented with 10 mM Hepes, pH 7.4, prior to adding ^125I-HDL. Specific binding or uptake is the difference between total and nonspecific activities. In assays using small molecule inhibitors (all incubations at 37° C.), immediately prior to incubation with ^125I-HDL, the cells were washed twice with medium A, preincubated with the small molecules for 1 h, and then incubated with radiolabeled lipoproteins as described above, all in medium C plus 0.5% (vol/vol) DMSO in the presence of the indicated concentrations of small molecules.

Data set [3] has as its target T1, SR-BI. The data set is described as follows: HDL binding assay (Alexa 488 HDL). The following applies: Alexa-488 labeled HDL particles. Further details: expressed in transfected cells. The format is cell-based. How it is done: HDL binding was assessed using Alexa Fluor 488-labeled HDL particles. For this assay, the Alexa 488 dye was covalently bound to apolipoprotein components of the HDL particle via primary amines; thus, no transfer of the fluorophore to cell membranes occurs. In this manner, direct binding of the HDL particles to SR-BI can be measured. As a positive control, BLT-1, which is known to increase binding of HDL to SR-BI, was used at 1 μM (12). It is possible that a compound can reduce binding of HDL to the receptor, and this would lead to a decrease in signal. This assay is used to characterize the mechanism of action of a particular compound; therefore, any outcome in the assay is acceptable. Data were normalized against DMSO and the positive control (1 μM BLT-1) in Genedata Assay Analyzer.

The nature of another data set: Stability in PBS. Format: physicochemical. The note with it: PBS (1% DMSO), over 48 hours. How it is done: The stability of the probe in PBS (1% DMSO) was measured over 48 hours. We noticed that the concentration of the probe fluctuated through the course of the assay (data not shown). We believe that this fluctuation is due to the low solubility of the probe. Thus, we decided to determine the amount of undissolved probe present in the well after it was treated with PBS for a given length of time, relative to the amount of undissolved probe at the start of the assay. The wells were centrifuged and the supernatant was removed after various time points, then acetonitrile was added to dissolve the remaining solid in the wells, and the amount of probe was quantified. […] The stability of the probe was confirmed by measuring stability in human plasma, with >99% remaining after a 5-hour incubation period. […] FIG. 5 provides a tablular summary of Known Probe (ML278) Properties Computed from Structure.

Where two headings read alike, the source gives them in different places.

Turning to `COCC(=O)N1CCc2cc(-c3csc(NC(=O)c4cc(OC)cc(OC)c4)n3)ccc21` [Compound 137, 3,5-Dimethoxy-N-(4-(1-(2-methoxyacetyl)indolin-5-yl)thiazol-2-yl)benzamide], the “reduction of efflux of free cholesterol from cells” value at SR-BI [1] (during the course of the assay) is recorded as “up to 50%”. In addition, the results for the “inhibition of efflux of cholesterol” value against SR-BI [1] (listed as Probe 278) and on SR-BI [1] (listed as compound of Formula (II)) were “Inhibits efflux of cholesterol” and “inhibit efflux of cholesterol”, respectively. Further, the IC50 at SR-BI [2] (37° C., 1 h preincubation with compound, read-out: IC50) is 5.7 nM; on SR-BI [2] (range, read-out: measured range of IC50) it was 0.93 to 6 nM. For the same compound, the “binding of HDL to SR-BI” value on SR-BI [3] was “increases binding of HDL to the receptor”. For the same compound, the “stability in PBS” value in “Stability in PBS” was “stable to PBS”.

The values above are taken from US9951055B2, “Thiazole-based inhibitors of scavenger receptor BI” (THE BROAD INSTITUTE, INC., priority 2012, dated 2018).
